Legend:
[1] = molecular target: T1, PPAR alpha-LBD (Homo sapiens, UniProt Q07869); test: PPAR assay, PPARα; conditions: for PPARα activation (competitive activation rate), compared with fenofibrate: sample final concentration 100 μM, positive control fenofibrate, FIGS. 5 and 6; for simultaneous activation of PPARα and PPARγ: summary of the PPARα and PPARγ assays, sample 100 μM
T1 sequence (Q07869 239-466 limits assumed): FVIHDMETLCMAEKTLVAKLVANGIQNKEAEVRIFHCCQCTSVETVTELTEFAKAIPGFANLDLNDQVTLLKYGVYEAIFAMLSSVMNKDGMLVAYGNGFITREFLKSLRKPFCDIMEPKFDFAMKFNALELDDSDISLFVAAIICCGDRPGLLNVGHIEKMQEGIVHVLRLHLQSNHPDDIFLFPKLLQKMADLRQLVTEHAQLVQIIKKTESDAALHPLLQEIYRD

[2] = molecular target: T2, PPAR gamma-LBD (Homo sapiens, UniProt P37231); test: PPAR assay, PPARγ; assay type: binding; conditions: sample final concentration 100 μM; positive control rosiglitazone; FIGS. 7 and 8
T2 sequence (P37231 238-503 limits assumed): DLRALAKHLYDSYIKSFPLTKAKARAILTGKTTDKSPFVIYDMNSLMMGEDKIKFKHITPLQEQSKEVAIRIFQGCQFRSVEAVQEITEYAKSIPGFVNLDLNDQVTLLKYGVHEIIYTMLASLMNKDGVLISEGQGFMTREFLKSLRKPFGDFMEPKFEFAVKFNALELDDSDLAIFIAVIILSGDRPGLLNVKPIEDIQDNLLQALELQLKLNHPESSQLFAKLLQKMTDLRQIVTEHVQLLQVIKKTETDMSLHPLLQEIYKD

Row | Compound | melting point [°C] | simultaneous activation of PPARα and PPARγ [1] | PPARα activation (competitive activation rate), compared with fenofibrate [1] | PPARγ activation (competitive activation rate), compared with rosiglitazone [2]
1 | COc1ccc(-c2nc3ccccc3s2)cc1OC [Compound 20, 2-(3,4-dimethoxyphenyl)benzo[d]thiazole] | 135 to 137.2 | simultaneously activates PPARα and PPARγ | very excellent PPARα activation agent compared to fenofibrate | very excellent PPARγ activation agent compared to rosiglitazone
2 | COc1cc(-c2nc3ccccc3s2)cc(OC)c1OC [Compound 24, 2-(3,4,5-trimethoxyphenyl)benzo[d]thiazole] | 149.5 to 151.1 | simultaneously activates PPARα and PPARγ | very excellent PPARα activation agent compared to fenofibrate | very excellent PPARγ activation agent compared to rosiglitazone
3 | COc1cc(-c2nc3ccccc3s2)cc(OC)c1O [Compound 25, 4-(benzo[d]thiazol-2-yl)-2,6-dimethoxyphenol] | 153.5 to 156.1 | simultaneously activates PPARα and PPARγ | very excellent PPARα activation agent compared to fenofibrate | very excellent PPARγ activation agent compared to rosiglitazone
4 | Oc1ccc(-c2nc3cc(C(F)(F)F)ccc3s2)cc1 [Compound 28, 4-(5-(trifluoromethyl)benzo[d]thiazol-2-yl)phenol] | 187.2 to 188.9 | simultaneously activates PPARα and PPARγ | very excellent PPARα activation agent compared to fenofibrate | very excellent PPARγ activation agent compared to rosiglitazone
5 | COc1cc(-c2nc3cc(C(F)(F)F)ccc3s2)ccc1O [Compound 31, 2-methoxy-4-(5-(trifluoromethyl)benzo[d]thiazol-2-yl)phenol] | 155.7 to 159.9 | simultaneously activates PPARα and PPARγ | very excellent PPARα activation agent compared to fenofibrate | very excellent PPARγ activation agent compared to rosiglitazone
6 | COc1ccc(-c2nc3cc(C(F)(F)F)ccc3s2)cc1 [Compound 34, 2-(4-methoxyphenyl)-5-(trifluoromethyl)benzo[d]thiazole] | 128.8 to 130.1 |  |  | very excellent PPARγ activation agent compared to rosiglitazone
7 | COc1ccc(-c2nc3ccccc3[nH]2)c(OC)c1 [Compound 52, 2-(2,4-dimethoxyphenyl)-1H-benzo[d]imidazole] |  | simultaneously activates PPARα and PPARγ | very excellent PPARα activation agent compared to fenofibrate | very excellent PPARγ activation agent compared to rosiglitazone
8 | Oc1ccccc1-c1nc2ccccc2[nH]1 [Compound 53, 2-(1H-benzo[d]imidazol-2-yl)phenol] |  | simultaneously activates PPARα and PPARγ | very excellent PPARα activation agent compared to fenofibrate | very excellent PPARγ activation agent compared to rosiglitazone
9 | COc1ccc(-c2nc3cc(C(=O)O)ccc3[nH]2)c(OC)c1 [Compound 65, 2-(2,4-dimethoxyphenyl)-1H-benzo[d]imidazole-5-carboxylic acid] |  | simultaneously activates PPARα and PPARγ | very excellent PPARα activation agent compared to fenofibrate | very excellent PPARγ activation agent compared to rosiglitazone
10 | CC(C)(Oc1ccc(-c2nc3ccccc3s2)cc1)C(=O)O [Compound 97, 2-(4-(benzo[d]thiazol-2-yl)phenoxy)-2-methylpropanoic acid] |  | simultaneously activates PPARα and PPARγ | very excellent PPARα activation agent compared to fenofibrate | very excellent PPARγ activation agent compared to rosiglitazone
11 | O=C(O)c1ccc2[nH]c(-c3ccc(OCc4ccccc4)cc3)nc2c1 [Compound 113, 2-(4-(benzyloxy)phenyl)-1H-benzo[d]imidazole-5-carboxylic acid] |  | simultaneously activates PPARα and PPARγ | very excellent PPARα activation agent compared to fenofibrate | very excellent PPARγ activation agent compared to rosiglitazone

More lines, main results first:

Row | melting point [°C] | simultaneous activation of PPARα and PPARγ [1] | Compound | PPARα activation (competitive activation rate), compared with fenofibrate [1] | PPARγ activation (competitive activation rate), compared with rosiglitazone [2]
12 |  | simultaneously activates PPARα and PPARγ | COc1ccc(-c2nc3cc(C(=O)O)ccc3[nH]2)cc1OC [Compound 64, 2-(3,4-dimethoxyphenyl)-1H-benzo[d]imidazole-5-carboxylic acid] | very excellent PPARα activation agent compared to fenofibrate | very excellent PPARγ activation agent compared to rosiglitazone
13 |  | simultaneously activates PPARα and PPARγ | O=C(O)c1ccc2[nH]c(-c3ccccc3O)nc2c1 [Compound 66, 2-(2-hydroxyphenyl)-1H-benzo[d]imidazole-5-carboxylic acid] | very excellent PPARα activation agent compared to fenofibrate | very excellent PPARγ activation agent compared to rosiglitazone
14 |  | simultaneously activates PPARα and PPARγ | COc1cc(-c2nc3cc(C(=O)O)ccc3[nH]2)cc(OC)c1OC [Compound 67, 2-(3,4,5-trimethoxyphenyl)-1H-benzo[d]imidazole-5-carboxylic acid] | very excellent PPARα activation agent compared to fenofibrate | very excellent PPARγ activation agent compared to rosiglitazone
15 |  | simultaneously activates PPARα and PPARγ | O=C(O)c1ccc2[nH]c(-c3ccc(O)c(Br)c3)nc2c1 [Compound 69, 2-(3-bromo-4-hydroxyphenyl)-1H-benzo[d]imidazole-5-carboxylic acid] | very excellent PPARα activation agent compared to fenofibrate | very excellent PPARγ activation agent compared to rosiglitazone
16 |  | simultaneously activates PPARα and PPARγ | O=C(O)c1ccc2[nH]c(-c3cc(Br)c(O)c(Br)c3)nc2c1 [Compound 70, 2-(3,5-dibromo-4-hydroxyphenyl)-1H-benzo[d]imidazole-5-carboxylic acid] | very excellent PPARα activation agent compared to fenofibrate | very excellent PPARγ activation agent compared to rosiglitazone

From US8889881B2, “Compound having skin-whitening, anti-oxidizing and PPAR activities and medical use therefor” (Pusan National University Industry —University Cooperation …, priority 2011, dated 2014)
